Data taken from US12312599B2, “Methods, compositions, and kits for producing beige adipocytes and treating metabolic disorders” (MaineHealth, priority 2018, dated 2025).

Test: Activity of Y-27632 stock solutions
Format: physicochemical
Settings: water based versus DMSO stock
Procedure: Note: Only use Y-27632 stock solutions that have been resuspended in DMSO. […] Conduct Mesoderm induction of iPSC in a laminar flow cabinet. • 3. Expand cells in NutriStem hPSC XF Medium overnight and change 100% of the medium without Y-27632 every 24 hours in a laminar flow cabinet for cell culture. When changing media, tilt plate up and allow media to pool at the bottom of wells. Aspirate the pooled medium without touching the surface of the plate. Replace with medium warmed to room temperature by pipetting 2 ml down the side of the wells. Cell Passaging • 1. Expand cell colonies until they have reached 70-80% confluence in high-density areas of the wells. High-density accumulation can occur along the edges of the well as well as the middle. Cells permitted to reach high density will lose their potential for differentiation after multiple passages. • 2. Prior to cell passage, warm cell wash buffer and NutriStem hPSC XF Medium to room temperature. Conduct cell passage in a laminar flow cabinet. • 3. Aspirate NutriStem hPSC XF Medium from wells with vacuum aspirator and wash with PBS without calcium or magnesium. Remove PBS and add 1 ml of ReLeSR reagent to side of well. Agitate plate to allow ReLeSR reagent to spread evenly on the surface. • 4. Aspirate ReLeSR reagent with vacuum aspirator after 30 seconds, which will leave behind a thin film of liquid. […]

inhibitor activity of water based stock solutions: lose significant inhibitor activity
SMILES: C[C@@H](N)[C@H]1CC[C@H](C(=O)Nc2ccncc2)CC1 [Y-27632]
